Article PMC6160541 (Frontiers in Chemistry, 2018)
Like-named read-outs stand apart in the source and are kept apart here.

Key:
[1] = system: HepG-2; assay: MTT cytotoxicity assay, HepG-2; format: cell-based, human; settings: 48 h
Procedure: (§1) We evaluated the cytotoxicity of 1c-6c, 1d-7d and of the positive control 1a-5a against a panel of human cancer cells using MTT (3-(4,5-dimethylthiazol-2-yl)-2,5-diphenyltetrazolium bromide) assay. The IC50 values were calculated based on three parallel experiments.
(§2) Cisplatin and oxaliplatin were purchased from Yurui Chemical Co. Ltd. (Shanghai, China). All of the other chemicals were obtained from commercial suppliers, such as Alfa […]
(§3) IonSpec QFT mass spectrometer with ESI ionization. 3-(4,5-dimethylthiazol-2-yl) […]
(§4) Phosphate-buffered saline (PBS) contains 137 mM
(§5) NaCl, 2.7 mM KCl, 10 mM Na2HPO4 and 2 mM KH2PO4. Fetal bovine serum (FBS), 0.25% trypsin/EDTA solution, and penicillin-streptomycin solution were purchased from […]
(§6) Invitrogen (Grand Island, NY, USA). […]
(§7) HeLa (cervical carcinoma cell line), MCF-7 (breast gland adenocarcinoma), LNCaP and PC3 (prostatic cancer), HepG-2 (hepatocellular carcinoma), A549 and A549R (lung carcinoma) were used for the MTT […]
(§8) In Vitro Cellular Cytotoxicity Assays
(§9) Cells seeded in 96-well plates were incubated in a 5% CO2 atmosphere in 100 µL of complete medium at 37 ℃ for 24 h. Then, 100 µL of freshly prepared culture medium containing drugs at different concentrations was added and incubated for another 48 h.
(§10) MTT (5 mg/mL, 20 µL) was added and incubated for 3 h. Finally, the medium was removed, and DMSO (150 µL) was added. The absorbance was measured at 570 nm using a Bio-Rad 680 microplate reader. The IC50 values were calculated using GraphPad […]
(§11) Prism software. […]

[2] = system: MCF-7; assay: MTT cytotoxicity assay, MCF-7; format: cell-based, human; settings: 48 h
Procedure: as §1, §2, §3, §4, §5, §6, §7, §8, §9, §10, §11

[3] = system: PC3; assay: MTT cytotoxicity assay, PC3; format: cell-based, human; settings: 48 h
Procedure: as §1, §2, §3, §4, §5, §6, §7, §8, §9, §10, §11

[4] = system: A549; assay: MTT cytotoxicity assay, A549; format: cell-based, human; settings: 48 h
Procedure: as §1, §2, §3, §4, §5, §6, §7, §8, §9, §10, §11

[5] = system: HeLa; assay: MTT cytotoxicity assay, HeLa; format: cell-based, human; settings: 48 h
Procedure: as §1, §2, §3, §4, §5, §6, §7, §8, §9, §10, §11

[6] = system: LNCaP; assay: MTT cytotoxicity assay, LNCaP; format: cell-based, human; settings: 48 h
Procedure: as §1, §2, §3, §4, §5, §6, §7, §8, §9, §10, §11

[7] = system: A549R; assay: MTT cytotoxicity assay, A549R (cisplatin-resistant); format: cell-based, human; settings: for IC50: MTT, 48 h
Procedure: as §1, §2, §3, §4, §5, §6, §7, §8, §9, §10, §11

[8] = system: 3T3; assay: Viability of normal cells 3T3, 48 h incubation assay; format: cell-based
Procedure: (§12) An ideal anticancer compound should be selective for cancer cells over normal healthy cells, thereby mitigating the undesired toxic side effects associated with chemotherapy.
(§13) Scheme 9. Synthetic route of 38b. Conditions and reagents: (a) Ac2O and NaOAc; (b) TMSN3, BF3OEt2, and DCM; (c) MeONa and MeOH rt overnight; (d) BnBr, NaH, and DMF overnight; (e) […]
(§14) Preparation of 46b and 47b
(§15) Compounds 46b (38%) and 47b (45%) were prepared according to the procedure described for compounds 20b and 21b, respectively.
(§16) Compound 48b (45%) was prepared according to the procedure described for compound […]
as §8
(§17) Cells seeded in 96-well plates were incubated in a 5% CO2 atmosphere in 100 µL of complete medium at 37 ℃ for 24 h. […]
(§18) MTT (5 mg/mL, 20 µL) was added and incubated for 3 h. […] The absorbance was measured at 570 nm using a Bio-Rad 680 microplate reader. The IC50 values were calculated using GraphPad Prism software. […]
(§19) For cytotoxicity assays using the GLUT1 inhibitor 4,6-O-ethylidene-α-D-glucose (EDG), phloretin and the OCT2 inhibitor Ctd., a similar procedure as described above was followed except that MCF-7 cells (3500 cells/well) were seeded on a 96 well plate in 100 µL of RPMI and incubated for 24 h at 37 °C. […] The cytotoxicity profiles of the compounds were evaluated using the MTT assay. […]

[9] = Stability in whole human blood; format: in vitro ADME
Source text: (§20) One of the advantages of inert Pt(IV) prodrugs is their enhanced stability in RPMI 1640 and whole human blood.

[10] = system: 293T; assay: Viability of normal cells 293T, 48 h incubation assay; format: cell-based
Procedure: as §12, §13, §14, §15, §16, §8, §17, §18, §19

[11] = Stability in RPMI 1640; format: physicochemical
Source text: as §20

[12] = system: MCF-7 cells; assay: MTT cytotoxicity with GLUT1 inhibitors (EDG, phloretin) and OCT2 inhibitor (Ctd.) in MCF-7 cells; format: cell-based, human
Procedure: For cytotoxicity assays, the GLUT1 inhibitors EDG (1) and phloretin (2), the OCT2 inhibitor Ctd. (cimetidine) (3), and the mixture of EDG and Ctd.(4) were selected to undergo a similar procedure as antitumor activity in vitro. MCF-7 cells were seeded on a 96 well plate in 100 μL of RPMI and were incubated for 24 h at 37°C, and EDG-containing RPMI medium, phloretin-containing RPMI medium and Ctd.-containing RPMI medium were used to render the serial dilution of the concentrated solutions of the platinum compounds, and 100 μL/well was added (resulting in final inhibitor concentrations of 75 mM, 100 μM and 3 mM). The cytotoxicity profiles of the compounds were evaluated using MTT assay. […]
as §8, §9
as §10, with “GraphPad Prism software. Technical repetitions and independent experiments were based on three” for “GraphPad”
For cytotoxicity assays using the GLUT1 inhibitor 4,6-O-ethylidene-α-D-glucose (EDG), phloretin and the OCT2 inhibitor Ctd., a similar procedure as described above was followed except that MCF-7 cells (3500 cells/well) were seeded on a 96 well plate in 100 µL of RPMI and incubated for 24 h at 37 °C. EDG, phloretin and Ctd. containing RPMI medium were used for serial dilution of the concentrated solutions of the platinum compounds, and 100 µL/well were added (resulting in final inhibitor concentrations of 75 mM, 100 µM and 3 mM, respectively). The cytotoxicity profiles of the compounds were evaluated using the MTT assay. […]

| Structure (SMILES) | IC50 [1] [µM] | IC50 [2] [µM] | IC50 [3] [µM] | IC50 [4] [µM] | IC50 [5] [µM] | IC50 [6] [µM] | RF: Resistance factor = IC50(A549R)/IC50(A549) [7] | IC50 [7] [µM] | IC50 [8] [µM] | t1/2 in whole human blood [9] [h] | IC50 [10] [µM] | half-life ([11]; RPMI 1640) | remained unchanged ([11]; RPMI 1640, after 48 h) [%] | decomposition ([11]; RPMI medium, up to 12 h) | IC50 with EDG, folds higher than 48 h IC50 ([12]; MCF-7, EDG) [fold] | IC50 with mixture of EDG and Ctd., folds higher than 48 h IC50 ([12]; MCF-7, EDG + Ctd.) [fold] | IC50 ([12]; MCF-7, GLUT1 inhibitor EDG 75 mM, read-out: IC50 with EDG) [µM] | IC50 ([12]; MCF-7, GLUT1 inhibitor phloretin 100 μM, read-out: IC50 with phloretin) [µM] | IC50 with Ctd., folds higher than 48 h IC50 ([12]; MCF-7, OCT2 inhibitor Ctd. 3 mM) [fold] | IC50 with phloretin, folds higher than 48 h IC50 ([12]; MCF-7, phloretin) [fold] |
| --- | --- | --- | --- | --- | --- | --- | --- | --- | --- | --- | --- | --- | --- | --- | --- | --- | --- | --- | --- | --- |
| CC(=O)OC[C@H]1O[C@@H](O[C@H]2[C@H](OC(C)=O)[C@@H](OC(C)=O)[C@H](NC(=O)CCC(=O)[O][Pt-2]34([OH])([NH2+][C@@H]5CCCC[C@H]5[NH2+]3)[O]C(=O)C(=O)[O]4)O[C@@H]2COC(C)=O)[C@H](OC(C)=O)[C@@H](OC(C)=O)[C@H]1OC(C)=O [2c] | 59.3 ± 1.49 | 8.29 ± 1.87 | > 100 | 14.5 ± 1.47 | 4.05 ± 0.87 | 4.7 ± 0.89 | 0.58 | 8.37 ± 1.9 | – | – | – | – | – | – | – | – | – | – | – | – |
| CC(=O)OC[C@H]1O[C@@H](O[C@H]2[C@H](OC(C)=O)[C@@H](OC(C)=O)[C@H](NC(=O)CCC(=O)[O][Pt-2]([NH3+])([NH3+])([OH])([Cl])[Cl])O[C@@H]2COC(C)=O)[C@H](OC(C)=O)[C@@H](OC(C)=O)[C@H]1OC(C)=O [1c] | 11.6 ± 1.58 | 24.2 ± 1.44 | > 100 | 36.4 ± 1.39 | 18.2 ± 1.01 | > 100 | 0.12 | 4.26 ± 1.9 | – | – | – | – | – | – | – | – | – | – | – | – |
| CC(=O)OC[C@H]1O[C@H](NC(=O)CCC(=O)[O][Pt-2]23([OH])([NH2+][C@@H]4CCCC[C@H]4[NH2+]2)[O]C(=O)C(=O)[O]3)[C@@H](OC(C)=O)[C@@H](OC(C)=O)[C@@H]1OC(C)=O [6c] | 50.9 ± 1.46 | 20.8 ± 0.45 | 7.06 ± 0.56 | 23.8 ± 0.78 | 16.8 ± 0.45 | 20.1 ± 1.78 | – | > 100 | – | – | – | – | – | – | – | – | – | – | – | – |
| O=C(CCC(=O)[O][Pt-2]12([OH])([NH2+][C@@H]3CCCC[C@H]3[NH2+]1)[O]C(=O)C(=O)[O]2)NC[C@H]1OC(O)[C@H](O)[C@@H](O)[C@@H]1O (stereo partly drawn) [6d] | 4.1 ± 1.46 | 0.89 ± 1.34 | 66.6 ± 1.45 | 29.9 ± 1.78 | 2.88 ± 0.67 | 20 ± 0.79 | – | 47 ± 1.69 | > 100 | ~2.5 | 12.1 | up to 170 h | 66 | No significant decomposition | 36 | 95 | 31.8 | 38.7 | 82 | 44 |
| NC1CCCCC1N.O=C1[O][Pt]([OH])([OH])[O]C1=O [4a, reference compound] | > 100 | > 100 | > 100 | > 100 | 15.8 ± 0.34 | 23 ± 0.89 | – | 29.7 ± 0.64 | – | – | – | – | – | – | – | – | – | – | – | – |
| CC(=O)OC[C@H]1O[C@@H](NC(=O)CCC(=O)[O][Pt-2]([NH3+])([NH3+])([OH])([Cl])[Cl])[C@H](OC(C)=O)[C@@H](OC(C)=O)[C@@H]1O[C@H]1O[C@H](COC(C)=O)[C@@H](OC(C)=O)[C@H](OC(C)=O)[C@H]1OC(C)=O [3c] | 3.27 ± 1.67 | 27.2 ± 1.56 | 1.13 ± 0.45 | 3.38 ± 1.49 | 0.91 ± 0.54 | > 100 | 4.33 | 14.6 ± 1.78 | – | – | – | – | – | – | – | – | – | – | – | – |
